Results published in PubChem BioAssay (NCI).
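GI50: concentration for 50% inhibition of growth. Definition used: TGI = concentration required for complete inhibition of growth.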

What was measured:
Assay in all cases: NCI-60 cell line screen, 384-well format
SK-MEL-5 melanoma = system: SK-MEL-5 melanoma
NCI-H23 lung = system: NCI-H23 lung
U251 glioblastoma = system: U251 glioblastoma
BT-549 breast = system: BT-549 breast
HOP-62 NSCLC = system: HOP-62 NSCLC
786-0 renal = system: 786-0 renal
T-47D breast = system: T-47D breast
SR leukemia = system: SR leukemia
MCF7 breast = system: MCF7 breast
MDA-MB-468 breast = system: MDA-MB-468 breast
ACHN renal = system: ACHN renal
UACC-62 melanoma = system: UACC-62 melanoma
HCT-116 colon = system: HCT-116 colon
HOP-92 NSCLC = system: HOP-92 NSCLC
SW-620 colon = system: SW-620 colon
UACC-257 melanoma = system: UACC-257 melanoma
PC-3 prostate = system: PC-3 prostate
OVCAR-3 ovarian = system: OVCAR-3 ovarian
SN12C renal = system: SN12C renal
EKVX NSCLC = system: EKVX NSCLC
COLO 205 colon = system: COLO 205 colon
RXF 393 renal = system: RXF 393 renal
M14 melanoma = system: M14 melanoma
OVCAR-8 ovarian = system: OVCAR-8 ovarian
NCI-H226 lung = system: NCI-H226 lung
SNB-19 CNS = system: SNB-19 CNS
SF-539 CNS = system: SF-539 CNS
A549 NSCLC = system: A549 NSCLC
TK-10 renal = system: TK-10 renal
IGROV1 ovarian = system: IGROV1 ovarian
A498 renal = system: A498 renal
SK-MEL-2 melanoma = system: SK-MEL-2 melanoma
LOX IMVI melanoma = system: LOX IMVI melanoma
HL-60(TB) leukemia = system: HL-60(TB) leukemia
SNB-75 CNS = system: SNB-75 CNS
NCI/ADR-RES ovarian = system: NCI/ADR-RES ovarian
OVCAR-5 ovarian = system: OVCAR-5 ovarian
RPMI-8226 leukemia = system: RPMI-8226 leukemia
NCI-H522 lung = system: NCI-H522 lung
UO-31 renal = system: UO-31 renal
MDA-MB-435 melanoma = system: MDA-MB-435 melanoma
CCRF-CEM leukemia = system: CCRF-CEM leukemia
NCI-H322M lung = system: NCI-H322M lung
DU-145 prostate = system: DU-145 prostate
CAKI-1 renal = system: CAKI-1 renal
MALME-3M melanoma = system: MALME-3M melanoma
SF-295 CNS = system: SF-295 CNS
SK-OV-3 ovarian = system: SK-OV-3 ovarian
OVCAR-4 ovarian = system: OVCAR-4 ovarian
MOLT-4 leukemia = system: MOLT-4 leukemia
SF-268 CNS = system: SF-268 CNS
SK-MEL-28 melanoma = system: SK-MEL-28 melanoma
HCC-2998 colon = system: HCC-2998 colon
K-562 leukemia = system: K-562 leukemia
KM12 colon = system: KM12 colon
HT29 colon = system: HT29 colon
NCI-H460 NSCLC = system: NCI-H460 NSCLC
MDA-MB-231 breast = system: MDA-MB-231 breast
HCT-15 colon = system: HCT-15 colon

CC(C)(C[C@H]1CN(S(=O)(=O)c2cccc(C(F)(F)F)c2)c2cc(-c3cc(F)cc(OC(F)F)c3)ccc2O1)C(=O)O
GI50 (SK-MEL-5 melanoma): 3.86 µM
TGI (SK-MEL-5 melanoma): 13.5 µM
GI50 (NCI-H23 lung): 3.38 µM
TGI (NCI-H23 lung): 10.7 µM
GI50 (U251 glioblastoma): 7.65 µM
TGI (U251 glioblastoma): 20.2 µM
GI50 (BT-549 breast): 2.8 µM
TGI (BT-549 breast): 9.11 µM
GI50 (HOP-62 NSCLC): 4.81 µM
TGI (HOP-62 NSCLC): 16.7 µM
GI50 ([…]-0 renal): 9.51 µM
TGI (786-0 renal): 22.8 µM
GI50 (T-47D breast): 5.89 µM
TGI (T-47D breast): 18.9 µM
GI50 (SR leukemia): 1.51 µM
TGI (SR leukemia): 2.9 µM
GI50 (MCF7 breast): 4.82 µM
TGI (MCF7 breast): 17.2 µM
GI50 (MDA-MB-468 breast): 2.66 µM
TGI (MDA-MB-468 breast): 7.31 µM
GI50 (ACHN renal): 13.4 µM
TGI (ACHN renal): 26.7 µM
GI50 (UACC-62 melanoma): 3.84 µM
TGI (UACC-62 melanoma): 13.6 µM
GI50 (HCT-116 colon): 7.93 µM
TGI (HCT-116 colon): 20.5 µM
GI50 (HOP-92 NSCLC): 7.09 µM
TGI (HOP-92 NSCLC): 20 µM
GI50 (SW-620 colon): 2.92 µM
TGI (SW-620 colon): 7.59 µM
GI50 (UACC-257 melanoma): 8.84 µM
TGI (UACC-257 melanoma): 23.2 µM
GI50 (PC-3 prostate): 8.44 µM
TGI (PC-3 prostate): 20.8 µM
GI50 (OVCAR-3 ovarian): 2.46 µM
TGI (OVCAR-3 ovarian): 7.45 µM
GI50 (SN12C renal): 10.3 µM
TGI (SN12C renal): 22.4 µM
GI50 (EKVX NSCLC): 10.7 µM
TGI (EKVX NSCLC): 22.8 µM
GI50 (COLO 205 colon): 5.83 µM
TGI (COLO 205 colon): 15.3 µM
GI50 (RXF 393 renal): 4.02 µM
TGI (RXF 393 renal): 11.1 µM
GI50 (M14 melanoma): 4.53 µM
TGI (M14 melanoma): 15.3 µM
GI50 (OVCAR-8 ovarian): 9.79 µM
TGI (OVCAR-8 ovarian): 22.1 µM
GI50 (NCI-H226 lung): 8.64 µM
TGI (NCI-H226 lung): 22 µM
GI50 (SNB-19 CNS): 8.54 µM
TGI (SNB-19 CNS): 20.5 µM
GI50 (SF-539 CNS): 6 µM
TGI (SF-539 CNS): 18.4 µM
GI50 (A549 NSCLC): 4.28 µM
TGI (A549 NSCLC): 15.5 µM
GI50 (TK-10 renal): 10.6 µM
TGI (TK-10 renal): 23.1 µM
GI50 (IGROV1 ovarian): 7.94 µM
TGI (IGROV1 ovarian): 20.9 µM
GI50 (A498 renal): 4.35 µM
TGI (A498 renal): 15.5 µM
GI50 (SK-MEL-2 melanoma): 2.73 µM
TGI (SK-MEL-2 melanoma): 7.34 µM
GI50 (LOX IMVI melanoma): 12.8 µM
TGI (LOX IMVI melanoma): 25.4 µM
GI50 (HL-60(TB) leukemia): 2.74 µM
TGI (HL-60(TB) leukemia): 4.91 µM
GI50 (SNB-75 CNS): 17.4 µM
TGI (SNB-75 CNS): 31.2 µM
GI50 (NCI/ADR-RES ovarian): 2.52 µM
TGI (NCI/ADR-RES ovarian): 7.17 µM
GI50 (OVCAR-5 ovarian): 16.3 µM
TGI (OVCAR-5 ovarian): 29.9 µM
GI50 (RPMI-8226 leukemia): 2.78 µM
TGI (RPMI-8226 leukemia): 6.15 µM
GI50 (NCI-H522 lung): 2.66 µM
TGI (NCI-H522 lung): 7.35 µM
GI50 (UO-31 renal): 10.5 µM
TGI (UO-31 renal): 22.3 µM
GI50 (MDA-MB-435 melanoma): 2.04 µM
TGI (MDA-MB-435 melanoma): 4.48 µM
GI50 (CCRF-CEM leukemia): 6.52 µM
TGI (CCRF-CEM leukemia): 18.4 µM
GI50 (NCI-H322M lung): 12.6 µM
TGI (NCI-H322M lung): 25.6 µM
GI50 (DU-145 prostate): 10.1 µM
TGI (DU-145 prostate): 21.9 µM
GI50 (CAKI-1 renal): 6.92 µM
TGI (CAKI-1 renal): 19 µM
GI50 (MALME-3M melanoma): 11.5 µM
TGI (MALME-3M melanoma): 24.5 µM
GI50 (SF-295 CNS): 3.02 µM
TGI (SF-295 CNS): 10.3 µM
GI50 (SK-OV-3 ovarian): 9.09 µM
TGI (SK-OV-3 ovarian): 21.4 µM
GI50 (OVCAR-4 ovarian): 9.12 µM
TGI (OVCAR-4 ovarian): 21.5 µM
GI50 (MOLT-4 leukemia): 3.11 µM
TGI (MOLT-4 leukemia): 8.3 µM
GI50 (SF-268 CNS): 9.85 µM
TGI (SF-268 CNS): 22.6 µM
GI50 (SK-MEL-28 melanoma): 7.37 µM
TGI (SK-MEL-28 melanoma): 20.1 µM
GI50 (HCC-2998 colon): 6.63 µM
TGI (HCC-2998 colon): 20.7 µM
GI50 (K-562 leukemia): 3.18 µM
TGI (K-562 leukemia): 12.1 µM
GI50 (KM12 colon): 4.06 µM
TGI (KM12 colon): 14.4 µM
GI50 (HT29 colon): 3.97 µM
TGI (HT29 colon): 13.6 µM
GI50 (NCI-H460 NSCLC): 4.04 µM
TGI (NCI-H460 NSCLC): 13 µM
GI50 (MDA-MB-231 breast): 8.82 µM
TGI (MDA-MB-231 breast): 21.4 µM
GI50 (HCT-15 colon): 4.15 µM
TGI (HCT-15 colon): 14.1 µM
